One assay has as its target T1, ALDH1A1 enzyme (Homo sapiens, UniProt P00352).
T1 sequence (P00352 1-501): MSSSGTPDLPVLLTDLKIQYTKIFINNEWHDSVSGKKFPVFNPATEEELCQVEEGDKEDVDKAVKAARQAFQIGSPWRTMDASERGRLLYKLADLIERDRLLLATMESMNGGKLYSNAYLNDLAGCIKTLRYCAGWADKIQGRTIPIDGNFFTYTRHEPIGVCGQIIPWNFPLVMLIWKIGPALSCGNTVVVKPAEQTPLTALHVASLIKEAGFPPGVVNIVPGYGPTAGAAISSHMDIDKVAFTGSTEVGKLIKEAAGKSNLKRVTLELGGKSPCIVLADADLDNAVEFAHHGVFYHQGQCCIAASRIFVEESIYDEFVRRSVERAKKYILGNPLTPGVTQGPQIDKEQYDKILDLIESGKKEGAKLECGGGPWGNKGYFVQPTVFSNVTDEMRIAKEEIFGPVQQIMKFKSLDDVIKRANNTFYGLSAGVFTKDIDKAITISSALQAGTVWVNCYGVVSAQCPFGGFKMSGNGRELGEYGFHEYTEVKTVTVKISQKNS
Put plainly: ALDH1A1 enzymatic assay (in vitro). The format is biochemical. The settings on record: ALDH1A1 enzyme 20 nM, NAD+ 1 mM, propionaldehyde 80 μM; read-out: ALDH1A1 IC50. A digest of the protocol: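 ALDH1A1 (20 nM final) in 100 mM HEPES pH 7.5, 0.01% Tween 20 was preincubated 15 min at RT with compound (968 pM–57.2 μM final), then started with 1 mM NAD+ and 80 μM propionaldehyde. NADH fluorescence (ex 340/em 450 nm) followed kinetically for 10 min; change normalized to no-inhibitor and no-enzyme controls for percent inhibition and curve fitting.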

The test system of a further assay is MIA PaCa-2 cells. Put plainly: MIA PaCa2 cell-based assay (1,536-well high-content imaging ALDEFLUOR assay). Details: species or system human. The settings on record: Homo sapiens, 0.5 h, ALDEFLUOR BAAA substrate 500 nM, 30 minutes. In outline: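 High-content ALDEFLUOR imaging readout: BAA-retaining cells in FITC channel scored against Hoechst-counted nuclei. Before imaging, MIA PaCa-2 cells seeded at 1,000 per well received final 500 nM BAAA and 0.5 nM Hoechst with compounds in 16-point series (1.4 nM to 47.8 μM), 30 min, 37° C.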

Structures are written as SMILES. Where a name gives a salt, the structure may show the parent alone. Some results are limits rather than exact numbers.

As a reminder, the IC50 is the concentration that inhibits the measured activity by half. With `COc1ccc2ncc(C(=O)N3CCN(C(=O)C4CC4)CC3)c(N3CCS(=O)(=O)CC3)c2c1` [Example 29, (4-(cyclopropanecarbonyl)piperazin-1-yl)(4-(1,1-dioxidothiomorpholino)-6-methoxyquinolin-3-yl)methanone], the IC50 on ALDH1A1 enzyme and with MIA PaCa-2 cells was greater than 10000 nM throughout.

Take `O=C(c1cnc2cc(F)c(F)cc2c1N1CCC2(CC1)OCCO2)N1CCN(C(=O)N2CCCC2)CC1` [Example 170, (6,7-difluoro-4-(1,4-dioxa-8-azaspiro[4.5]decan-8-yl)quinolin-3-yl)(4-(pyrrolidine-1-carbonyl)piperazin-1-yl)methanone]: the IC50 is less than 500 nM on ALDH1A1 enzyme and 1000 to 10000 nM with MIA PaCa-2 cells.

With `CC1(C#N)CCN(c2c(C(=O)N3CCN(C(=O)N4CCCC4)CC3)cnc3cc(F)c(F)cc23)CC1` [Example 175, 1-(6,7-difluoro-3-(4-(pyrrolidine-1-carbonyl)piperazine-1-carbonyl)quinolin-4-yl)-4-methylpiperidine-4-carbonitrile], the IC50 on ALDH1A1 enzyme and with MIA PaCa-2 cells was 1000 to 10000 nM throughout.

As to `CCOC(=O)N1CCN(C(=O)c2cnc3ccc(OC)cc3c2N2CCC3(CC2)OCCO3)CC1` [Example 40, Ethyl 4-(6-methoxy-4-(1,4-dioxa-8-azaspiro[4.5]decan-8-yl)quinoline-3-carbonyl)piperazine-1-carboxylate], the IC50 was less than 500 nM on ALDH1A1 enzyme and greater than 10000 nM in the assay on MIA PaCa-2 cells.

Consider `N#CC1(c2ccc(F)cc2)CCN(c2c(C(=O)N3CCN(C(=O)C4CC4)CC3)cnc3ccc(F)cc23)CC1` [Example 278, 1-(3-(4-(cyclopropanecarbonyl)piperazine-1-carbonyl)-6-fluoroquinolin-4-yl)-4-(4-fluorophenyl)piperidine-4-carbonitrile], for which the IC50 on ALDH1A1 enzyme and in the assay with MIA PaCa-2 cells was less than 500 nM each time.

Regarding `CCNC(=O)N1CCN(C(=O)c2cnc3ccccc3c2N2CCC(C)(C#N)CC2)CC1` [Example 99, 4-(4-(4-cyano-4-methylpiperidin-1-yl)quinoline-3-carbonyl)-N-ethylpiperazine-1-carboxamide], the values for the IC50 on ALDH1A1 enzyme and in the assay on MIA PaCa-2 cells were 1000 to 10000 nM and greater than 10000 nM, respectively.

Turning to `CCS(=O)(=O)N1CCN(C(=O)c2cnc3ccc(F)cc3c2N2CCC3(CC2)OCCO3)CC1` [Example 151, (4-(ethylsulfonyl)piperazin-1-yl)(6-fluoro-4-(1,4-dioxa-8-azaspiro[4.5]decan-8-yl)quinolin-3-yl)methanone], the IC50 is less than 500 nM at ALDH1A1 enzyme and 1000 to 10000 nM with MIA PaCa-2 cells.

With `COc1ccc2ncc(C(=O)N3CCC(OC)CC3)c(N3CCC4(CC3)OCCO4)c2c1` [Example 2, (6-methoxy-4-(1,4-dioxa-8-azaspiro[4.5]decan-8-yl)quinolin-3-yl)(4-methoxypiperidin-1-yl)methanone, TFA], the 50% inhibitory concentration (IC50) is less than 500 nM at ALDH1A1 enzyme and 1000 to 10000 nM in the assay on MIA PaCa-2 cells.

On to `CC1(C#N)CCN(c2c(C(=O)N3CCN(C(=O)C4CC4)CC3)cnc3c(F)c(F)c(F)cc23)CC1` [Example 128, 1-(3-(4-(cyclopropanecarbonyl)piperazine-1-carbonyl)-6,7,8-trifluoroquinolin-4-yl)-4-methylpiperidine-4-carbonitrile], for which the 50% inhibitory concentration (IC50) at ALDH1A1 enzyme is less than 500 nM; in the assay on MIA PaCa-2 cells, 1000 to 10000 nM.

Turning to `O=C(c1cnc2ccc(F)cc2c1N1CCC2(CC1)OCCO2)N1CCC(F)(F)CC1` [Example 50, (4,4-difluoropiperidin-1-yl)(6-fluoro-4-(1,4-dioxa-8-azaspiro[4.5]decan-8-yl)quinolin-3-yl)methanone], the IC50 is less than 500 nM at ALDH1A1 enzyme and greater than 10000 nM with MIA PaCa-2 cells.

Turning to `N#CC1(c2ccc(-c3c(C(=O)N[C@H]4C[C@H](O)C4)cnc4ccc(F)cc34)cc2)CC1` [Cpd. 336, 4-(4-(1-cyanocyclopropyl)phenyl)-6-fluoro-N-((1R,3R)-3-hydroxycyclobutyl)quinoline-3-carboxamide], the IC50 was less than 500 nM on ALDH1A1 enzyme and 500 to 1000 nM in the assay on MIA PaCa-2 cells.

Turning to `N#CC1(c2ccc(-c3c(C(=O)Nc4cnn(CCO)c4)cnc4ccc(F)cc34)cc2)CC1` [Cpd. 343, 4-(4-(1-cyanocyclopropyl)phenyl)-6-fluoro-N-(1-(2-hydroxyethyl)-1H-pyrazol-4-yl)quinoline-3-carboxamide], the IC50 on ALDH1A1 enzyme and in the assay on MIA PaCa-2 cells was less than 500 nM each time.

For `CC1(C#N)CCN(c2c(C(=O)N3CCC(S(C)(=O)=O)CC3)cnc3c(F)cc(F)cc23)CC1` [Example 189, 1-(6,8-difluoro-3-(4-(methylsulfonyl)piperidine-1-carbonyl)quinolin-4-yl)-4-methylpiperidine-4-carbonitrile], the IC50 on ALDH1A1 enzyme was less than 500 nM; in the assay with MIA PaCa-2 cells it was 1000 to 10000 nM.

For `C[C@@H]1CN(C(=O)c2cnc3ccc(F)cc3c2N2CCC(C)(C#N)CC2)C[C@H](C)N1C(=O)C1CC1` [Example 228, 1-(3-((3R*,5S*)-4-(cyclopropanecarbonyl)-3,5-dimethylpiperazine-1-carbonyl)-6-fluoroquinolin-4-yl)-4-methylpiperidine-4-carbonitrile], the IC50 at ALDH1A1 enzyme was 1000 to 10000 nM; in the assay with MIA PaCa-2 cells, greater than 10000 nM.

With `CCS(=O)(=O)N1CCN(C(=O)c2cnc3c(F)cc(F)cc3c2N2CCC3(CC2)OCCO3)CC1` [Example 161, (6,8-difluoro-4-(1,4-dioxa-8-azaspiro[4.5]decan-8-yl)quinolin-3-yl)(4-(ethylsulfonyl)piperazin-1-yl)methanone], the IC50 on ALDH1A1 enzyme is less than 500 nM; in the assay with MIA PaCa-2 cells it was 1000 to 10000 nM.

As for `C[C@@H]1CN(C(=O)c2cnc3ccc(F)cc3c2N2CCC(C)(C#N)CC2)C[C@H](C)N1S(C)(=O)=O` [Example 225, 1-(3-((3R*,5S*)-3,5-dimethyl-4-(methylsulfonyl)piperazine-1-carbonyl)-6-fluoroquinolin-4-yl)-4-methylpiperidine-4-carbonitrile], the values for the IC50 on ALDH1A1 enzyme and in the assay with MIA PaCa-2 cells were 1000 to 10000 nM and greater than 10000 nM, respectively.

On to `CN(C)C(=O)N1CCN(C(=O)c2cnc3ccsc3c2N2CCC(C#N)(c3ccccc3)CC2)CC1` [Example 289, 4-(7-(4-cyano-4-phenylpiperidin-1-yl)thieno[3,2-b]pyridine-6-carbonyl)-N,N-dimethylpiperazine-1-carboxamide], for which the IC50 at ALDH1A1 enzyme and with MIA PaCa-2 cells was less than 500 nM each time.

As to `CC1(C#N)CCN(c2c(C(=O)N3CCN(C(=O)C4CC4)CC3)cnc3ccc(Cl)cc23)CC1` [Example 117, 1-(6-chloro-3-(4-(cyclopropanecarbonyl)piperazine-1-carbonyl)quinolin-4-yl)-4-methylpiperidine-4-carbonitrile], the IC50 is less than 500 nM at ALDH1A1 enzyme and 1000 to 10000 nM in the assay on MIA PaCa-2 cells.

For `N#CCC1CCN(c2c(C(=O)N3CCN(C(=O)C4CC4)CC3)cnc3ccc(F)cc23)CC1` [Example 213, 2-(1-(3-(4-(cyclopropanecarbonyl)piperazine-1-carbonyl)-6-fluoroquinolin-4-yl)piperidin-4-yl)acetonitrile], the IC50 at ALDH1A1 enzyme and in the assay on MIA PaCa-2 cells was 1000 to 10000 nM in each case.

With `CC1(C#N)CCN(c2c(C(=O)N3CCN(S(C)(=O)=O)CC3)cnc3ccccc23)CC1` [Example 97, 4-methyl-1-(3-(4-(methylsulfonyl)piperazine-1-carbonyl)quinolin-4-yl)piperidine-4-carbonitrile], the IC50 on ALDH1A1 enzyme was less than 500 nM; in the assay with MIA PaCa-2 cells, greater than 10000 nM.

Regarding `CS(=O)(=O)N1CCN(C(=O)c2cnc3c(F)cc(F)cc3c2N2CCC3(CC2)OCCO3)CC1` [Example 131, (6,8-difluoro-4-(1,4-dioxa-8-azaspiro[4.5]decan-8-yl)quinolin-3-yl)(4-(methylsulfonyl)piperazin-1-yl)methanone], the IC50 on ALDH1A1 enzyme was less than 500 nM; in the assay with MIA PaCa-2 cells, 1000 to 10000 nM.

For `CC1(C#N)CCN(c2c(C(=O)N3CCN(C(=O)C4CC4)CC3)cnc3[nH]ncc23)CC1` [Example 237, 1-(5-(4-(cyclopropanecarbonyl)piperazine-1-carbonyl)-1H-pyrazolo[3,4-b]pyridin-4-yl)-4-methylpiperidine-4-carbonitrile], the IC50 on ALDH1A1 enzyme is 1000 to 10000 nM; in the assay with MIA PaCa-2 cells it was greater than 10000 nM.

With `N#CC1(c2ccc(-c3c(C(=O)Nc4cnn(CC(=O)NC5CC5)c4)cnc4ccc(F)cc34)cc2)CC1` [Cpd. 344, 4-(4-(1-cyanocyclopropyl)phenyl)-N-(1-(2-(cyclopropylamino)-2-oxoethyl)-1H-pyrazol-4-yl)-6-fluoroquinoline-3-carboxamide], the half-maximal inhibitory concentration (IC50) on ALDH1A1 enzyme was less than 500 nM; in the assay on MIA PaCa-2 cells, 1000 to 10000 nM.

For `CCNC(=O)N1CCN(C(=O)c2cnc3c(F)c(OC)c(F)cc3c2N2CCC(C)(C#N)CC2)CC1` [Example 147, 4-(4-(4-cyano-4-methylpiperidin-1-yl)-6,8-difluoro-7-methoxyquinoline-3-carbonyl)-N-ethylpiperazine-1-carboxamide], the figures for the IC50 at ALDH1A1 enzyme and with MIA PaCa-2 cells were less than 500 nM and 1000 to 10000 nM, respectively.
